The numbers were not newly measured in patent US7064108B2 (Merck & Co., Inc., priority 2002, dated 2006), which cites them from elsewhere.

The subject of series [1] is glutamate-gated chloride ion channels. Particulars: invertebrate nerve and muscle cells.
In series [2] the test system is mammalian ligand-gated chloride channels.
In series [3] the test system is Onchocerca volvulus. The following applies: after one month; single oral dose approximately 150 ug/kg.
The test system of series [4] is head lice (Pediculosis capitis). The following applies: single oral 200 ug/kg dose, 26 patients.
Series [5] deals with head lice. Particulars: after a single topical application.
Series [6] relates to head lice. Particulars: single oral dose of 100–200 ug/kg.
Series [7] deals with Onchocerca volvulus.
The conditions of series [8]: amicrofilaremic population in mass treatment programs.

Ivermectin: in series [1], the “affinity for glutamate-gated chloride ion channels” value is listed as “high affinity”. Further, the “affinity for mammalian ligand-gated chloride channels” value in series [2] is recorded as “low affinity”. The dermal microfilarial density result in the series on Onchocerca volvulus [3] is on record as “near zero”. In addition, the “effect against head lice” value in [4] is recorded as “effectiveness”. In the series on head lice [5], the “effect on head lice” value was “absolute curative effect”. Moreover, in the series with head lice [6], the “effect on head lice infestation” value is reported as “significant, but not absolute, effect”. For the same molecule, in the series with Onchocerca volvulus [7] (adult form of Onchocerca volvulus), the “activity against adult form” value was “not against the adult form”. For the same molecule, the “activity against tissue microfilariae” value with Onchocerca volvulus [7] (tissue microfilariae of Onchocerca volvulus) is “active”. Besides, the plasma half-life (in vivo) is 15 to 20 h. Also, the “overall incidences of adverse experiences” value in series [8] is 1%.

As for `Nc1nc2cccc(-c3ccc(CN4CCS(=O)(=O)CC4)cc3)n2n1` [metabolite], the plasma half life result (metabolite of ivermectin) is “about 3 days”.
